From PubChem BioAssay (NCI)
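Exposure lasted 48 hours, with cells grown in 96-well plates and compounds tested at five concentrations. The concentration for 50% growth inhibition is given as GI50. At the TGI there is no net growth.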

Key:
Test in all cases: DTP human tumour cell line panel, 48 h
[1] = test system: 786-0 renal
[2] = test system: A498 renal
[3] = test system: A549 NSCLC
[4] = test system: ACHN renal
[5] = test system: BT-549 breast
[6] = test system: CAKI-1 renal
[7] = test system: CCRF-CEM leukemia
[8] = test system: COLO 205 colon
[9] = test system: DU-145 prostate
[10] = test system: EKVX NSCLC
[11] = test system: HCC-2998 colon
[12] = test system: HCT-116 colon
[13] = test system: HCT-15 colon
[14] = test system: HL-60(TB) leukemia
[15] = test system: HOP-62 NSCLC
[16] = test system: HOP-92 NSCLC
[17] = test system: HS 578T breast
[18] = test system: HT29 colon
[19] = test system: IGROV1 ovarian
[20] = test system: K-562 leukemia
[21] = test system: KM12 colon
[22] = test system: LOX IMVI melanoma
[23] = test system: M14 melanoma
[24] = test system: MALME-3M melanoma
[25] = test system: MCF7 breast
[26] = test system: MDA-MB-231 breast
[27] = test system: MDA-MB-435
[28] = test system: MOLT-4 leukemia
[29] = test system: NCI-H226 lung
[30] = test system: NCI-H23 lung
[31] = test system: NCI-H460 lung
[32] = test system: NCI-H522 lung
[33] = test system: NCI/ADR-RES ovarian
[34] = test system: OVCAR-3 ovarian
[35] = test system: OVCAR-4 ovarian
[36] = test system: OVCAR-5 ovarian
[37] = test system: OVCAR-8 ovarian
[38] = test system: PC-3 prostate
[39] = test system: RPMI-8226 leukemia
[40] = test system: RXF 393 renal
[41] = test system: SF-268 CNS
[42] = test system: SF-295 CNS
[43] = test system: SF-539 CNS
[44] = test system: SK-MEL-2 melanoma
[45] = test system: SK-MEL-28 melanoma
[46] = test system: SK-MEL-5 melanoma
[47] = test system: SK-OV-3 ovarian
[48] = test system: SN12C renal
[49] = test system: SNB-19 CNS
[50] = test system: SNB-75 CNS
[51] = test system: SR leukemia
[52] = test system: SW-620 colon
[53] = test system: T-47D breast
[54] = test system: TK-10 renal
[55] = test system: U251 CNS
[56] = test system: UACC-257 melanoma
[57] = test system: UACC-62 melanoma
[58] = test system: UO-31 renal

Cc1cc(Oc2ccccc2)ccc1Nc1ncnc2ccc(-c3cnc(Cl)c(NS(C)(=O)=O)c3)cc12
GI50 [1]: 2230 nM | TGI [1]: 14000 nM | GI50 [2]: 1380 nM | TGI [2]: 3970 nM | GI50 [3]: 2030 nM | TGI [3]: 6160 nM | GI50 [4]: 2450 nM | TGI [4]: 15500 nM | GI50 [5]: 1160 nM | TGI [5]: 4500 nM | GI50 [6]: 1040 nM | TGI [6]: 5980 nM | GI50 [7]: 1320 nM | TGI [7]: 15600 nM | GI50 [8]: 1450 nM | TGI [8]: 3780 nM | GI50 [9]: 2040 nM | TGI [9]: 12100 nM | GI50 [10]: 1490 nM | TGI [10]: 10600 nM | GI50 [11]: 1580 nM | TGI [11]: 3750 nM | GI50 [12]: 2510 nM | TGI [12]: 13300 nM | GI50 [13]: 1730 nM | TGI [13]: 10700 nM | GI50 [14]: 1550 nM | TGI [14]: 13700 nM | GI50 [15]: 2840 nM | TGI [15]: 18300 nM | GI50 [16]: 246 nM | TGI [16]: 1380 nM | GI50 [17]: 587 nM | TGI [17]: 6810 nM | GI50 [18]: 1500 nM | TGI [18]: 12100 nM | GI50 [19]: 227 nM | TGI [19]: 1130 nM | GI50 [20]: 3580 nM | TGI [20]: > 100000 nM | GI50 [21]: 2170 nM | TGI [21]: 7430 nM | GI50 [22]: 964 nM | TGI [22]: 4000 nM | GI50 [23]: 2040 nM | TGI [23]: 12900 nM | GI50 [24]: 612 nM | TGI [24]: 3790 nM | GI50 [25]: 282 nM | TGI [25]: 13100 nM | GI50 [26]: 1620 nM | TGI [26]: 4220 nM | GI50 [27]: 1260 nM | TGI [27]: 3480 nM | GI50 [28]: 1510 nM | TGI [28]: 5150 nM | GI50 [29]: 3660 nM | TGI [29]: 20100 nM | GI50 [30]: 2180 nM | TGI [30]: 9560 nM | GI50 [31]: 1710 nM | TGI [31]: 12500 nM | GI50 [32]: 2300 nM | TGI [32]: 10300 nM | GI50 [33]: 3120 nM | TGI [33]: > 100000 nM | GI50 [34]: 855 nM | TGI [34]: 2600 nM | GI50 [35]: 2150 nM | TGI [35]: 10500 nM | GI50 [36]: 544 nM | TGI [36]: 3660 nM | GI50 [37]: 3390 nM | TGI [37]: 19000 nM | GI50 [38]: 1450 nM | TGI [38]: 10500 nM | GI50 [39]: 2180 nM | TGI [39]: 6070 nM | GI50 [40]: 1320 nM | TGI [40]: 3840 nM | GI50 [41]: 1640 nM | TGI [41]: 12600 nM | GI50 [42]: 1090 nM | TGI [42]: 5430 nM | GI50 [43]: 1010 nM | TGI [43]: 3620 nM | GI50 [44]: 1390 nM | TGI [44]: 3770 nM | GI50 [45]: 745 nM | TGI [45]: 5530 nM | GI50 [46]: 1550 nM | TGI [46]: 3000 nM | GI50 [47]: 505 nM | TGI [47]: 4200 nM | GI50 [48]: 2160 nM | TGI [48]: 12500 nM | GI50 [49]: 2200 nM | TGI [49]: 7070 nM | GI50 [50]: 277 nM | TGI [50]: 3410 nM | GI50 [51]: 1770 nM | TGI [51]: 5560 nM | GI50 [52]: 2380 nM | TGI [52]: 13100 nM | GI50 [53]: 185 nM | TGI [53]: 1370 nM | GI50 [54]: 1790 nM | TGI [54]: 20800 nM | GI50 [55]: 2190 nM | TGI [55]: 10500 nM | GI50 [56]: 1950 nM | TGI [56]: 8260 nM | GI50 [57]: 625 nM | TGI [57]: 2110 nM | GI50 [58]: 604 nM | TGI [58]: 3650 nM
